# Laboratory results reported in patent publication US7803930B2, “Antisense modulation of apolipoprotein B-expression” (Isis Pharmaceuticals, Inc., priority 2002, dated 2010).
# Like-named read-outs stand apart in the source and are kept apart here.
# Key:
# [1] = system: mouse apolipoprotein B protein; assay: High fat fed C57BL/6 mice, 6 week timecourse: liver apolipoprotein B protein, immunoblot; assay type: in vivo; details: 5, 25, 50 mg/kg, six weeks
# From the text: Liver protein samples collected at the end of the treatment period were subjected to immunoblot analysis using an antibody directed to mouse apolipoprotein B protein (Gladstone Institute, San Francisco, Calif.).
# apolipoprotein B mRNA [2] = assay: Lean vs high fat fed C57BL/6 mice (Example 20): target mRNA levels in liver; assay type: in vivo, mouse; details: 50 mg/kg i.p. every three days, six weeks
# Protocol: Male C57BL/6 mice were divided into two matched groups; (1) wild-type control animals (lean animals) and (2) animals receiving a high fat diet (60% kcal fat). Control animals received saline treatment and were maintained on a normal rodent diet. After overnight fasting, mice from each group were dosed intraperitoneally every three days with saline or 50 mg/kg ISIS 147764 (SEQ ID No: 109) for six weeks. At study termination and forty eight hours after the final injections, animals were sacrificed and evaluated for target mRNA levels in liver, cholesterol and triglyceride levels, liver enzyme levels and serum glucose levels.
# [3] = assay type: in vivo, mouse; details: for Cholesterol Levels / Glucose Levels / Lipoprotein Levels HDL / Lipoprotein Levels LDL / Lipoprotein Levels VLDL: ApoE knockout mice, high fat diet, six weeks; for Liver Enzyme Levels ALT / Liver Enzyme Levels AST: mouse, in vivo, ip
# From the text: Female ApoE knockout mice ranged in age from 5 to 7 weeks and were placed on a normal diet for 2 weeks before study initiation. ApoE knockout mice were then fed ad libitum a 60% fat diet, with 0.15% added cholesterol to induce dyslipidemia and obesity. Control animals were maintained on a high-fat diet with no added cholesterol. […]
# At study termination and forty eight hours after the final injections, animals were sacrificed and evaluated for target mRNA levels in liver by RT-PCR methods verified by Northern Blot analysis, glucose levels, cholesterol and lipid levels by HPLC separation methods and triglyceride and liver enzyme levels (performed by LabCorp Preclinical Services; San Diego, Calif.).
# Data are normalized to saline controls.
# apolipoprotein B mRNA [4] = assay: Long-term study in lean Cynomolgous monkeys (Example 64): apolipoprotein B mRNA in liver; assay type: in vivo, Cynomolgous monkey; details: for apolipoprotein B expression % change normalized to saline: liver, one month
# Protocol: Male and female Cynomologous monkeys are treated with 2, 4 or 12 mg/kg of ISIS 301012 intravenously or 2 or 20 mg/kg subcutaneously at a frequency of every two days for the first week, and every 4 days thereafter, for 1 and 3 month treatment periods. Saline-treated animals serve as controls. Each treatment group includes 2 to 3 animals of each sex.
# At a one month interval and at the 3 month study termination, the animals are sacrificed and evaluated for target expression in liver, lipid levels in serum and indicators of toxicity. Liver samples are procured, RNA is isolated and apolipoprotein B mRNA expression is measured by real-time PCR as described in other examples herein. Serum lipids, including total cholesterol, LDL-cholesterol, HDL-cholesterol and triglycerides, are evaluated by routine clinical analysis using an Olympus Clinical Analyzer (Olympus America Inc., Melville, N.Y.). Ratios of LDL-cholesterol to HDL-cholesterol and total cholesterol to HDL-cholesterol are also calculated. Analyses of serum ALT and AST, inflammatory infiltrates in tissue and basophilic granules in tissue provide an assessment of toxicities related to the treatment. Hepatic steatosis, or accumulation of lipids in the liver, is assessed by routine histological analysis with oil red 0 stain and measurement of liver tissue triglycerides using a Triglyceride GPO Assay (Sigma-Aldrich, St. Louis, Mo.).
# (§1) The results from the one month interval of the long term treatment are shown in Table 50 and are normalized to saline-treated animals for mRNA and to untreated baseline values for lipid levels. Total cholesterol, LDL-cholesterol, HDL-cholesterol, LDL particle concentration and triglyceride levels in serum were measured by nuclear magnetic resonance spectroscopy by Liposcience (Raleigh, N.C.). Additionally, the concentration of intact oligonucleotide in liver was measured by capillary gel electrophoresis and is presented as micrograms of oligonucleotide per gram of liver tissue. Each result represents the average of data from 4 animals (2 males and 2 females).
# In a similar experiment, male and female Cynomolgous monkeys received an intravenous dose of ISIS 301012 at 4 mg/kg, every two days for the first week and every 4 days thereafter. Groups of animals were sacrificed after the first dose and the fourth dose, as well as 11, 15 and 23 days following the fourth and final dose. Liver RNA was isolated and apolipoprotein B mRNA levels were evaluated by real-time PCR as described herein. […] Furthermore, after 4 doses of ISIS 301012 at 4 mg/kg, target mRNA was reduced by approximately 85% and a 50% reduction in target mRNA was sustained for up to 16 days following the cessation of antisense oligonucleotide treatment.
# [5] = Transgenic mice dosing study (Example 52): serum ALT and AST levels; assay type: in vivo, mouse; details: 10 or 25 mg/kg
# [6] = Long-term study in lean Cynomolgous monkeys (Example 64): serum lipids by nuclear magnetic resonance spectroscopy; assay type: in vivo, Cynomolgous monkey; details: one month
# Protocol: […] Saline-treated animals serve as controls. Each treatment group includes 2 to 3 animals of each sex.
# as §1
substance,measurement,setting,value
"GTCCCTGAAGATGTCAATGC (2'-MOE gapmer, further chemistry not given here) [ISIS 147764]",apolipoprotein B protein expression in liver (immunoblot),[1],decreases apolipoprotein B protein expression in liver in a dose-dependent manner
same,Percent Change mRNA,apolipoprotein B mRNA [2]; High Fat Group,−87%
same,Percent Change mRNA,apolipoprotein B mRNA [2]; Lean-control group,−73%
same,Cholesterol Levels,[3]; 5 mg/kg i.p. every three days,1630 mg/dL
same,Glucose Levels,[3]; 5 mg/kg i.p. every three days,195 mg/dL
same,Lipoprotein Levels HDL,[3]; 5 mg/kg i.p. every three days,49 mg/dL
same,Lipoprotein Levels LDL,[3]; 5 mg/kg i.p. every three days,475 mg/dL
same,Lipoprotein Levels VLDL,[3]; 5 mg/kg i.p. every three days,1111 mg/dL
same,Cholesterol Levels,[3]; 25 mg/kg i.p. every three days,1750 mg/dL
same,Glucose Levels,[3]; 25 mg/kg i.p. every three days,209 mg/dL
same,Lipoprotein Levels HDL,[3]; 25 mg/kg i.p. every three days,62 mg/dL
same,Lipoprotein Levels LDL,[3]; 25 mg/kg i.p. every three days,500 mg/dL
same,Lipoprotein Levels VLDL,[3]; 25 mg/kg i.p. every three days,1194 mg/dL
same,Cholesterol Levels,[3]; 50 mg/kg i.p. every three days,1490 mg/dL
same,Glucose Levels,[3]; 50 mg/kg i.p. every three days,191 mg/dL
same,Lipoprotein Levels HDL,[3]; 50 mg/kg i.p. every three days,61 mg/dL
same,Lipoprotein Levels LDL,[3]; 50 mg/kg i.p. every three days,325 mg/dL
same,Lipoprotein Levels VLDL,[3]; 50 mg/kg i.p. every three days,1113 mg/dL
same,Liver Enzyme Levels ALT,[3]; 5 mg/kg,48 IU/L
same,Liver Enzyme Levels AST,[3]; 5 mg/kg,50 IU/L
same,Liver Enzyme Levels ALT,[3]; 25 mg/kg,59 IU/L
same,Liver Enzyme Levels AST,[3]; 25 mg/kg,60 IU/L
same,Liver Enzyme Levels ALT,[3]; 50 mg/kg,87 IU/L
same,Liver Enzyme Levels AST,[3]; 50 mg/kg,85 IU/L
"ISIS 301012: SEQ ID NO: 247, antisense oligonucleotide targeted to human apolipoprotein B (antisense GCCTCAGTCTGCTTCGCACC; chemistry not given here)",reduction in target mRNA in liver,"apolipoprotein B mRNA [4]; Cynomolgous monkeys, after 4 doses at 4 mg/kg i.v.",approximately 85%
same,reduction in apolipoprotein B mRNA expression in liver,"apolipoprotein B mRNA [4]; Cynomolgous monkeys, single intravenous dose of 4 mg/kg",40%
same,reduction in target mRNA in liver sustained after cessation,"apolipoprotein B mRNA [4]; Cynomolgous monkeys, up to 16 days following cessation of treatment (4 doses, 4 mg/kg)",50%
same,apolipoprotein B expression,"apolipoprotein B mRNA [4]; lean Cynomolgous monkeys, one month interval",inhibits apolipoprotein B expression in a dose-dependent manner
same,apolipoprotein B expression % change normalized to saline,"apolipoprotein B mRNA [4]; lean Cynomolgous monkeys, intravenous 2 mg/kg",−45%
same,apolipoprotein B expression % change normalized to saline,"apolipoprotein B mRNA [4]; lean Cynomolgous monkeys, intravenous 4 mg/kg",−76%
same,apolipoprotein B expression % change normalized to saline,"apolipoprotein B mRNA [4]; lean Cynomolgous monkeys, intravenous 12 mg/kg",−96%
same,apolipoprotein B expression % change normalized to saline,"apolipoprotein B mRNA [4]; lean Cynomolgous monkeys, subcutaneous 20 mg/kg",−94%
same,AST and ALT levels in serum,[5],"increased, yet did not exceed normal levels"
same,"HDL-cholesterol, % change normalized to untreated baseline value",[6]; intravenous 2 mg/kg,−23%
same,"LDL Particle concentration, % change normalized to untreated baseline value",[6]; intravenous 2 mg/kg,+8%
same,"LDL-cholesterol, % change normalized to untreated baseline value",[6]; intravenous 2 mg/kg,+15%
same,"LDL/HDL, % change normalized to untreated baseline value",[6]; intravenous 2 mg/kg,+94%
same,"Total cholesterol, % change normalized to untreated baseline value",[6]; intravenous 2 mg/kg,−6%
same,"Total cholesterol/HDL, % change normalized to untreated baseline value",[6]; intravenous 2 mg/kg,+44%
same,"Triglyceride, % change normalized to untreated baseline value",[6]; intravenous 2 mg/kg,+26%
same,"HDL-cholesterol, % change normalized to untreated baseline value",[6]; intravenous 4 mg/kg,−15%
same,"LDL Particle concentration, % change normalized to untreated baseline value",[6]; intravenous 4 mg/kg,+8%
same,"LDL-cholesterol, % change normalized to untreated baseline value",[6]; intravenous 4 mg/kg,+9%
same,"LDL/HDL, % change normalized to untreated baseline value",[6]; intravenous 4 mg/kg,+38%
same,"Total cholesterol, % change normalized to untreated baseline value",[6]; intravenous 4 mg/kg,−2%
same,"Total cholesterol/HDL, % change normalized to untreated baseline value",[6]; intravenous 4 mg/kg,+22%
same,"Triglyceride, % change normalized to untreated baseline value",[6]; intravenous 4 mg/kg,+32%
same,"HDL-cholesterol, % change normalized to untreated baseline value",[6]; intravenous 12 mg/kg,−8%
same,"LDL Particle concentration, % change normalized to untreated baseline value",[6]; intravenous 12 mg/kg,−11%
same,"LDL-cholesterol, % change normalized to untreated baseline value",[6]; intravenous 12 mg/kg,+3%
same,"LDL/HDL, % change normalized to untreated baseline value",[6]; intravenous 12 mg/kg,+44%
same,"Total cholesterol, % change normalized to untreated baseline value",[6]; intravenous 12 mg/kg,−2%
same,"Total cholesterol/HDL, % change normalized to untreated baseline value",[6]; intravenous 12 mg/kg,+21%
same,"Triglyceride, % change normalized to untreated baseline value",[6]; intravenous 12 mg/kg,+15%
same,"HDL-cholesterol, % change normalized to untreated baseline value",[6]; subcutaneous 3.5 mg/kg,+13%
same,"LDL Particle concentration, % change normalized to untreated baseline value",[6]; subcutaneous 3.5 mg/kg,−14%
same,"LDL-cholesterol, % change normalized to untreated baseline value",[6]; subcutaneous 3.5 mg/kg,−4%
same,"LDL/HDL, % change normalized to untreated baseline value",[6]; subcutaneous 3.5 mg/kg,−15%
same,"Total cholesterol, % change normalized to untreated baseline value",[6]; subcutaneous 3.5 mg/kg,+5%
same,"Total cholesterol/HDL, % change normalized to untreated baseline value",[6]; subcutaneous 3.5 mg/kg,−7%
same,"Triglyceride, % change normalized to untreated baseline value",[6]; subcutaneous 3.5 mg/kg,+1%
same,"HDL-cholesterol, % change normalized to untreated baseline value",[6]; subcutaneous 20 mg/kg,+5%
same,"LDL Particle concentration, % change normalized to untreated baseline value",[6]; subcutaneous 20 mg/kg,−21%
same,"LDL-cholesterol, % change normalized to untreated baseline value",[6]; subcutaneous 20 mg/kg,−16%
same,"LDL/HDL, % change normalized to untreated baseline value",[6]; subcutaneous 20 mg/kg,−19%
same,"Total cholesterol, % change normalized to untreated baseline value",[6]; subcutaneous 20 mg/kg,−5%
same,"Total cholesterol/HDL, % change normalized to untreated baseline value",[6]; subcutaneous 20 mg/kg,−10%
same,"Triglyceride, % change normalized to untreated baseline value",[6]; subcutaneous 20 mg/kg,−3%
